The text below walks through data of patent publication US8569295B2, “Bicyclic urea compounds” (Merck Patent GmbH, priority 2009, dated 2013).

Structures are written as SMILES.

Experiment [1] addresses T1, RON kinase (Homo sapiens, UniProt Q04912).
T1 construct: purchased Caliper Life Sciences
Nature of the experiment: RON kinase biochemical mobility shift assay (Caliper Desktop Profiler). The settings on record: RON kinase inhibition. The protocol: (§1) The Aurora assays described here are performed on two Caliper Life Sciences systems: the LC3000 and the Desktop Profiler. The RON kinase assays are performed on the Desktop Profiler only. These provide data on enzyme activity via measurement of the relative amounts of phosphorylated or unphosphorylated fluorescently labelled substrate peptide at the end of an enzymatic reaction. These different states of peptide are resolved by applying a potential difference across the sample. The presence of the charged phosphate group on the product (as opposed to the substrate) causes a different peptide mobility between the two peptides. This is visualized by excitation of the fluorescent label on the substrate and product peptides and represented as peaks within the analysis software.
(§2) The Desktop Profiler utilizes the same priniciple as the LC3000 for calculating percentage conversion of a substrate to product. Caliper Life Sciences provides proprietary flash frozen pre-made 384 well plates containing selected kinases. Each column in the 384 well plate contains a particular selected kinase. A second plate, the ‘substrate plate’ contains a mix of fluorescently labeled peptide substrate and ATP. These are arranged in columns so that transfer for substrate plate to enzyme plate provides the correct enzyme with the correct substrate/ATP concentration. Compounds are added to a thawed enzyme plate in the desired format, in single concentrations. Reactions are initiated by transfer of the substrate/ATP mix from the substrate plate. The enzyme plate is incubated for 90 minutes at 25 C. The reaction is stopped by addition of 70 ul of Stop Buffer (100 mM HEPES pH 7.5, 0.015% Brij-35, 10 mM EDTA (Sigma, E7889)).
(§3) Reading of the plate in the Profiler is identical to the LC3000, and the ratio between substrate and product peaks provides the activity of the enzyme in that well. This is best represented by a plate heat map which colors each well by percent inhibition as compared to positive and negative controls (no inhibitors and no ATP respectively).

Experiment [2] concerns the target T2, GST-Aurora A (Homo sapiens, UniProt O14965).
T2 construct: N-terminal GST fusion with full length Aurora A (1-403 amino acids); purchased Carna Biosciences 05-101
T2 sequence (O14965 1-403): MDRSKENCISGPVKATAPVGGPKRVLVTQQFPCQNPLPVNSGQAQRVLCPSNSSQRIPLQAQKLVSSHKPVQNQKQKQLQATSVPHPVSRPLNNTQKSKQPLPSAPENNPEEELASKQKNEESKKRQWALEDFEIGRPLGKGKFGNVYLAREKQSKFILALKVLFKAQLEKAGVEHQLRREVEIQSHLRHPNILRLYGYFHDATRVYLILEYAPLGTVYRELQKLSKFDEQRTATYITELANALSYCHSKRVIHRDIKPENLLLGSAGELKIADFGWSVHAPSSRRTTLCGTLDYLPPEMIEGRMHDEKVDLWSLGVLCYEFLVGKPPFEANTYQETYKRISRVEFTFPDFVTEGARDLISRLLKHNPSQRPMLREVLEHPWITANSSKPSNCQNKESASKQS
Nature of the experiment: Aurora A kinase biochemical mobility shift assay (Caliper LC3000 / Desktop Profiler). The settings on record: AK A (Aurora kinase A) inhibition. The protocol:
as §1
In order to measure inhibitor activity of Aurora A inhibitors in the Caliper Life Sciences LC3000, a TTP Mosquito liquid handling instrument is used to place 0.25 ul of the appropriate concentration of inhibitor in 100% DMSO (for a dose response curve calculation) into each well of a 384-well plate. To this reaction components are added to a final volume of 25 ul: • 0.067 ng/ul GST-Aurora A (Carna Biosciences 05-101. N-terminal GST fusion with full length Aurora A (1-403 amino acids), accession number NP_940835.1). • 15 uM ATP (Fluka, 02055) • 1 mM DTT (Sigma, D0632) • 1 mM MgCl2 (Sigma, M1028) • 1 uM substrate peptide (sequence FITC-LRRASLG-(CONH2), synthesized by Tufts Peptide Synthesis service. • 100 mM HEPES pH 7.5 (Calbiochem, 391338) • 0.015% Brij-35 (Sigma, B4184)
The reaction is incubated for 90 min at 25 C, and then stopped by the addition of 70 ul of Stop buffer (100 mM HEPES pH 7.5, 0.015% Brij-35, 10 mM EDTA (Sigma, E7889)).
The plate is read on a Caliper LC3000 in an Off-Chip mobility shift assay format, using the following parameters for a 12-sipper chip: screening pressure −1.8 psi, upstream voltage −2700, downstream voltage −1000. These conditions cause unphosphorylated substrate and phosphorylated product peptide to resolve as separate peaks allowing direct measurement of percentage of conversion of substrate to product. The percent conversion can be plotted against concentration of inhibitor to produce a sigmoidal dose response curve, from which an IC50 can be calculated using XLFit for Microsoft Excel.
as §2, §3

Experiment [3] concerns normal human cell growth. Conditions: in vitro, normal human cells vs tumor cells of various origins; cited from earlier work.

T1 sequence (Q04912 25-1400): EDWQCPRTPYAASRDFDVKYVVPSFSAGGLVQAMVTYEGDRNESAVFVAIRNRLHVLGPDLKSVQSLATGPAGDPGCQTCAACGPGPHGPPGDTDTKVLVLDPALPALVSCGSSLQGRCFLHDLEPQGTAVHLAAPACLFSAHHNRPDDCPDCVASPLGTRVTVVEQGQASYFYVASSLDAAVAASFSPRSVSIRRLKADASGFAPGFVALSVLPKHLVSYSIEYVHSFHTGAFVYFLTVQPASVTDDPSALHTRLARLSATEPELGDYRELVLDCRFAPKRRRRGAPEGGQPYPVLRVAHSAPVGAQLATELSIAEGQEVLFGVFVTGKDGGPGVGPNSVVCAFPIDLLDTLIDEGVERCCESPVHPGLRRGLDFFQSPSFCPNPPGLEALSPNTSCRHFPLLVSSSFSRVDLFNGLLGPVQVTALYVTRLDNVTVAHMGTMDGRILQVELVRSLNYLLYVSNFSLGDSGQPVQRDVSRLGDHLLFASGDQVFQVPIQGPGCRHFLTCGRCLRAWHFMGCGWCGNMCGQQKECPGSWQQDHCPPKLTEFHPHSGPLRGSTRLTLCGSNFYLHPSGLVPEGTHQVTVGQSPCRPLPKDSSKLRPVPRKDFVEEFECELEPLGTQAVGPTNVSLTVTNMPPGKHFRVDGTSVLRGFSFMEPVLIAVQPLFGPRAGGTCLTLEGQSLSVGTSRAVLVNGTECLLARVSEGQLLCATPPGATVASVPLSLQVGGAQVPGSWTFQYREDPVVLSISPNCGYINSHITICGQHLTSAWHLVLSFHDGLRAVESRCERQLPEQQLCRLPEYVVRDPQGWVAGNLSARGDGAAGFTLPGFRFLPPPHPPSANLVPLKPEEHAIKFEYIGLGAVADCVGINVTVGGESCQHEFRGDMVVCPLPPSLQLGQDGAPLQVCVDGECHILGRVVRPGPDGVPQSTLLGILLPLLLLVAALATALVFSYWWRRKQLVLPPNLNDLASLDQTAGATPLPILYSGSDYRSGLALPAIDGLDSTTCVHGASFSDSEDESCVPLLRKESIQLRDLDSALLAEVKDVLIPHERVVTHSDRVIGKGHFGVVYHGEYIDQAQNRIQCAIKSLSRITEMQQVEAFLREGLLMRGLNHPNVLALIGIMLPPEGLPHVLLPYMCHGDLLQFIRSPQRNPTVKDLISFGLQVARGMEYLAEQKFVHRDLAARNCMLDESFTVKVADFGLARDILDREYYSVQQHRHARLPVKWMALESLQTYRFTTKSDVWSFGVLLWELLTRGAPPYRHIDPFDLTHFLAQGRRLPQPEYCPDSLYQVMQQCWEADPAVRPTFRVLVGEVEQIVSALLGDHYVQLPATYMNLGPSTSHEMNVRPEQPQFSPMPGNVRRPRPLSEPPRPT

A word on the IC50: it is the concentration that gives 50% inhibition. As to `O=C1NCc2c(Oc3ccc(NC(=O)c4cc(Cl)cnc4Cl)cc3F)ccnc2N1` [Example 65, 2,5-dichloro-N-{3-fluoro-4-[(2-oxo-1,2,3,4-tetrahydropyrido[2,3-d]pyrimidin-5-yl)oxy]phenyl}-nicotinamide], the IC50 in experiment [1] and in experiment [2] was 0.01 to 0.1 µM throughout.
Consider `O=C1NCc2c(Oc3ccc(NC(=O)c4cccc(Br)c4)cc3F)ccnc2N1` [Example 66, 3-bromo-N-{3-fluoro-4-[(2-oxo-1,2,3,4-tetrahydropyrido[2,3-d]pyrimidin-5-yl)oxy]phenyl}-benzamide], for which the IC50 in experiment [1] and in experiment [2] was 0.01 to 0.1 µM throughout.
`COc1cccc(S(=O)(=O)Nc2ccc(Oc3ccnc4c3CNC(=O)N4)c(F)c2)c1` [Example 71, N-{3-fluoro-4-[(2-oxo-1,2,3,4-tetrahydropyrido[2,3-d]pyrimidin-5-yl)oxy]phenyl}-3-methoxybenzenesulfonamide]: the IC50 in experiment [1] and in experiment [2] was 0.1 to 1 µM each time.
As to `O=C(Nc1cccc(Cl)c1)Nc1ccc(Oc2ccnc3c2CNC(=O)N3)c(F)c1` [Example 67, N-(3-chlorophenyl)-N′-{3-fluoro-4-[(2-oxo-1,2,3,4-tetrahydropyrido[2,3-d]pyrimidin-5-yl)oxy]phenyl}urea], the IC50 in experiment [1] and in experiment [2] was 0.01 to 0.1 µM each time.
On to `Nc1nc(Nc2ccc(S(N)(=O)=O)cc2)nn1C(=O)c1c(F)cccc1F` [JNJ-7706621], for which the “fold less effective at inhibiting normal human cell growth than tumor cell proliferation” value in experiment [3] is recorded as “about 10 fold”.
Turning to `O=C1NCc2c(Oc3ccc(NS(=O)(=O)c4ccccc4F)cc3F)ccnc2N1` [Example 70, 2-fluoro-N-{3-fluoro-4-[(2-oxo-1,2,3,4-tetrahydropyrido[2,3-d]pyrimidin-5-yl)oxy]phenyl}benzenesulfonamide], the concentration for half-maximal inhibition (IC50) in experiment [1] and in experiment [2] was 0.1 to 1 µM throughout.
